Legend:
[1] = tested on: PINK1 knockout derived hippocampal neurons; experiment: Mitochondrial motility assay in axons; format: cell-based, mouse
Text: (§1) Mitochondrial motility assay: Primary hippocampal neuronal cultures were co-transfected with mitochondrial targeted GFP (mitoGFP) and mCherry-tagged synaptophysin (mCherrySynaptophysin) to allow for the live identification of mitochondria in axons.
(§2) To test if kinetin decreases motility we examined the mobility of axonal mitochondria in hippocampal neurons. Primary hippocampal neuronal cultures were co-transfected with mitoGFP and mCherry-tagged Synaptophysin (mCherrySynaptophysin) to allow for the live identification of mitochondria in axons. […] To test the PINK1 dependency of this process, we treated control mouse C57 (PINK1 wildtype) and PINK1 knockout derived hippocampal neurons with kinetin or 9MK and imaged their mitochondria.

rat hippocampal neurons = experiment: Mitochondrial motility assay in axons; format: cell-based; conditions: 50 μM, 48 hours pre-treatment
Text: as §1, §2

PINK1^wt = PINK1^wt (Homo sapiens, UniProt Q9BXM7); experiment: PINK1 kinase assay with ATP analogs (autophosphorylation, TRAP1 transphosphorylation); format: biochemical, H. sapiens; parameters: kinase domain with c-terminal extension (PINK1, residues 148-581) with a C-terminal FLAG3 tag; made in house; host or cells: baculovirus / Sf21 insect cells; conditions: for utilization to phosphorylate TRAP1: SF21 expressed PINK1; for transphosphorylation of TRAP1, activity versus ATP: GST tagged kinase domain 156-496 expressed in E. coli
Text: (§3) We expressed both PINK1^wt and PINK1^G309D GST tagged kinase domain (156-496PINK1) in E. coli and performed kinase assays with a series of ATP analogs.
(§4) Expression, purification and enzymatic characterization of PINK1: H. sapiens PINK1 kinase domain (PINK1, residues 156-496) with an N-terminal GST tag was expressed using a pGEX vector using standard techniques. H. sapiens PINK1 kinase domain with c-terminal extension (PINK1, residues 148-581) with a C-terminal FLAG3 tag was co-expressed with full length TRAP1 baculovirus/Sf21 insect cell system. […] The reaction was performed using 50 mM Tris-HCl, 150 mM NaCl, 10 mM MgCl2, 3 mM MnCl2, 0.5 mM DTT and 1 mg/ml substrate if indicated.
(§5) We constructed several FLAG3 tagged truncation variants of PINK1 and induced expression using baculovirus infected SF21 insect cells.
(§6) We expressed GST tagged kinase domain (PINK11156-496) in E. coli and performed a kinase assay.

PINK1^G309D = PINK1^G309D (Homo sapiens, UniProt Q9BXM7, G309D); experiment: as above; format: biochemical, H. sapiens; parameters: kinase domain with c-terminal extension (PINK1, residues 148-581) with a C-terminal FLAG3 tag; made in house; host or cells: baculovirus / Sf21 insect cells; conditions: GST tagged kinase domain 156-496 expressed in E. coli
Text: as §3, §4, §5, §6

HeLa cells = experiment: Parkin recruitment to depolarized mitochondria in HeLa cells, PINK1 form not stated; format: cell-based
Protocol: Parkin phosphorylation and mitochondrial translocation assay: HeLa cells were grown in DMEM supplemented with 10% FBS. Log phase cells were plated in 24 well plates with glass coverslips (Mattek) pretreated with fibronectin. Cells were pretreated with 50 μM of the indicated compound, followed by transfection with MitoGFP, mCherry Parkin, and full length PINK1FLAG3 in a 1:4:2 ratio using Fugene 6 (Promega). Fields of cells were selected by expression of MitoGFP (6 fields/well-3 wells/condition) and imaged at five-minute intervals following depolarization with 5 μM CCCP. Quantification was performed according to published protocols^3 and by creation of a Matlab based script.
Our ability to enhance PINK1 activity in-vitro using KTP led us to investigate means by which to achieve enhanced activity in cells expressing PINK1. […] We treated cells with either kinetin or adenine (FIG. 2A) and measured Parkin localization following mitochondrial depolarization with CCCP (FIG. 2B). HeLa cells, which have low levels of endogenous PINK1 and PARKIN, were transfected with wildtype or PINK1^G309D, mCherryParkin, and mitoGFP. After 48 hours of incubation with 25 μM adenine, kinetin or equivalent DMSO, we imaged CCCP-mediated depolarization of mitochondria (FIGS. 2C, 2D) and calculated the percentage of GFP labelled mitochondria with mCherryParkin associated (FIG. 2E). […]

[2] = substrate: Nc1ncnc2c1ncn2[C@@H]1O[C@H](COP(=O)(O)OP(=O)(O)OP(=O)(O)O)[C@@H](O)[C@H]1O; experiment: purified protein, by the assay type; format: biochemical, H. sapiens; conditions: other: catalytic constants for PINK1, nucleotide as substrate, autophosphorylation, SF21 expressed PINK1 148-581
[3] = catalytic constants for PINK1, nucleotide as substrate, autophosphorylation, SF21 expressed PINK1 148-581

Sequence of PINK1^G309D (Q9BXM7 148-581 G309D): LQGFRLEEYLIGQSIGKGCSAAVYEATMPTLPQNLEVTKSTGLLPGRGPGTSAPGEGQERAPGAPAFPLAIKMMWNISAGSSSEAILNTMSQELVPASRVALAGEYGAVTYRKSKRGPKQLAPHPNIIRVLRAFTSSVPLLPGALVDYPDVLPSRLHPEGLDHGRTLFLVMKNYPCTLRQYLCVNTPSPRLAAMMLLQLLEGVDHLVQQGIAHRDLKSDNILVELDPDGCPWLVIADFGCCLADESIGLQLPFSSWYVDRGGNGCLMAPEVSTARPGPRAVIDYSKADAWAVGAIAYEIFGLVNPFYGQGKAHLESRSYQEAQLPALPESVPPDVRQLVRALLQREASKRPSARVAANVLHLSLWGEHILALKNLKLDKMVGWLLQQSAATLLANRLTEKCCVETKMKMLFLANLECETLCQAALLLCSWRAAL

**Q.** Which mitochondrial motility [1] does the source give for Cn1cnc2c(NCc3ccco3)ncnc21 [9-methyl-Kinetin, reference compound] here?
**A.** The mitochondrial motility was “no change in motility”.

**Q.** And the “mitochondrial movement / motility” value (rat hippocampal neurons)?
**A.** The value was “did not affect mitochondrial motility”.

**Q.** O=P(O)(O)OP(=O)(O)OP(=O)(O)OC[C@H]1O[C@@H](n2cnc3c(NCc4ccccc4)ncnc32)[C@H](O)[C@@H]1O [N^6 Benzyl, N^6 Benzyl ATP, reference compound] was tested. Which “utilization to phosphorylate TRAP1” value (PINK1^wt) did it give?
**A.** Its value is “not”.

**Q.** O=P(O)(O)OP(=O)(O)OP(=O)(O)OC[C@H]1O[C@@H](n2cnc3c(NCCc4ccccc4)ncnc32)[C@H](O)[C@@H]1O [N^6 Phenethyl ATP, reference compound] was tested. Which “utilization to phosphorylate TRAP1” value (PINK1^wt) did it give?
**A.** The value was “not”.

**Q.** For N^6 furfuryl ATP [KTP], which “PINK1 activity stimulation versus other N6 substituted ATP analogs” value (PINK1^wt; FIG. 12) is on record?
**A.** Its value is “stimulated”.

**Q.** And the “transphosphorylation of TRAP1, activity versus ATP” value (PINK1^wt)?
**A.** Its value is “amplified”.

**Q.** And the “transphosphorylation of TRAP1, activity versus ATP” value (PINK1^wt; listed as N^6 FF ATP)?
**A.** The value was “more efficiently than ATP”.

**Q.** And the “fold higher Vmax versus ATP” value (PINK1^wt; PINK1 autophosphorylation)?
**A.** Its value is 1.84 fold.

**Q.** What about the “utilization to phosphorylate TRAP1” value (PINK1^wt) of the same molecule?
**A.** The value was “utilizes”.

**Q.** And the Km (PINK1^wt; [3])?
**A.** The Km was 51.7 µM.

**Q.** What about the Vmax (PINK1^wt; [3]) of the same molecule?
**A.** The Vmax was 0.0098 ± 0.002 min⁻¹.

**Q.** And the autophosphorylation (PINK1^G309D)?
**A.** Its autophosphorylation is “increased levels of autophosphorylation”.

**Q.** What about the “transphosphorylation of TRAP1, activity versus ATP” value (PINK1^G309D) of the same molecule?
**A.** Its value is “amplified”.

**Q.** And the “transphosphorylation of TRAP1, activity versus ATP” value (PINK1^G309D; listed as N^6 FF ATP)?
**A.** Its value is “increased catalytic rate than ATP”.

**Q.** c1ccc(CNc2ncnc3nc[nH]c23)cc1 [N6 benzyl adenine, reference compound] was tested. Which “Parkin recruitment to CCCP depolarized mitochondria” value (HeLa cells) did it give?
**A.** The value was “less active than kinetin”.

B1: PINK1^wt (Homo sapiens) (protein)
chain: LQGFRLEEYLIGQSIGKGCSAAVYEATMPTLPQNLEVTKSTGLLPGRGPGTSAPGEGQERAPGAPAFPLAIKMMWNISAGSSSEAILNTMSQELVPASRVALAGEYGAVTYRKSKRGPKQLAPHPNIIRVLRAFTSSVPLLPGALVDYPDVLPSRLHPEGLGHGRTLFLVMKNYPCTLRQYLCVNTPSPRLAAMMLLQLLEGVDHLVQQGIAHRDLKSDNILVELDPDGCPWLVIADFGCCLADESIGLQLPFSSWYVDRGGNGCLMAPEVSTARPGPRAVIDYSKADAWAVGAIAYEIFGLVNPFYGQGKAHLESRSYQEAQLPALPESVPPDVRQLVRALLQREASKRPSARVAANVLHLSLWGEHILALKNLKLDKMVGWLLQQSAATLLANRLTEKCCVETKMKMLFLANLECETLCQAALLLCSWRAAL
notes: kinase domain with c-terminal extension (PINK1, residues 148-581) with a C-terminal FLAG3 tag; made in house; host or cells: baculovirus / Sf21 insect cells
**Q.** What does the source list for B1?
**A.** Km [2]: 18.4 µM; kcat [2]: 8.83e-05 ± 1.7e-05 s⁻¹
